In paper PMC10247778, “PXL1 and SERKs act as receptor–coreceptor complexes for the CLE19 peptide to regulate pollen development” (Nature Communications, 2023):
Entries after “also recorded” stand apart in the source; their conditions may differ. Ends that are not written are not given here.

T1: PXL1^LRR (extracellular LRR domain of PXY-LIKE1, residues 1-639, 6xHis) (Arabidopsis, UniProt Q9FRS6 24-639)
T1 construct: signal peptide in the construct; PXL1 (PXY-LIKE1), Arabidopsis, AT1G08590, LRR domains, residues 1-639; also called PXL1 ectodomain; PXL1^LRR-6×His; source: High Five cells, purified (Ni-NTA, size-exclusion chromatography)
T1 sequence (looked up): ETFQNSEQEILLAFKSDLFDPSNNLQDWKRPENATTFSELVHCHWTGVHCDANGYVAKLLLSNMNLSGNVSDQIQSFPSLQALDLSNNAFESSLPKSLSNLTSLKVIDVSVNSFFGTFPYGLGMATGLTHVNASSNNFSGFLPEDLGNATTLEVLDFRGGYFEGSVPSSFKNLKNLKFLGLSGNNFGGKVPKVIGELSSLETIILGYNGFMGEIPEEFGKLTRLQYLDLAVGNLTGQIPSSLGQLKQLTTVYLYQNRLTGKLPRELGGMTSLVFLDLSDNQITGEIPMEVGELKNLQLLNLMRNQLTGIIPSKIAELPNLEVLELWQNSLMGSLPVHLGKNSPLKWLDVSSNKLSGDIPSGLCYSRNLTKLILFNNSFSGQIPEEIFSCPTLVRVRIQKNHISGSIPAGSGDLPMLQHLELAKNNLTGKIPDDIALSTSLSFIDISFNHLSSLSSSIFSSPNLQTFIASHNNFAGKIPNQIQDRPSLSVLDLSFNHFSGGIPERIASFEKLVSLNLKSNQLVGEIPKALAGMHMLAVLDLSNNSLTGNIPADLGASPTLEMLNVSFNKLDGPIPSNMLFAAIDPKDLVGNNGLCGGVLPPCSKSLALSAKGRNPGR


Tests used:
[1] = system: PXL1 (PXL1^LRR); assay: Gel filtration-MALDI-TOF identification of peptides copurified with PXL1 LRR; type: binding, Arabidopsis; conditions: PXL1^LRR incubated with synthesized peptide mixture (0.1 mg each), 10 mM Bis-Tris pH 6.0, 100 mM NaCl, on ice 1 h, Superdex 200
Protocol: As part of an effort to identify cognate receptors for peptidyl ligands in Arabidopsis, a pool of synthetic CLE small peptides (Supplementary Table 1) was mixed with purified individual extracellular LRR domains of receptor-like kinases (RLKs). The putative RLK-ligand complexes were purified by gel-filtration, and the peptides were detected by mass spectrometry, as reported previously.
Purified PXL1^LRR protein (with buffer containing 10 mM Bis-Tris pH 6.0, 100 mM NaCl) was incubated with synthesized peptide mixture (0.1 mg for each; Supplementary Table 1) on ice for 1 h. Then, each mixture was subjected to gel filtration (Superdex 200, GE Healthcare) for analysis. The relevant peak fractions of PXL1^LRR were collected and 2 μl was used for analyzed by MALDI-TOF–mass spectrometry analysis.

[2] = molecular target: PXL1^∆KD–SERK1^∆KD interaction; assay: Co-IP PXL1^∆KD-SERK1^∆KD in Nicotiana benthamiana; type: cell-based, Arabidopsis; conditions: N. benthamiana leaves, with or without peptide 3–4 h; GFP-Trap, anti-Myc
Text: The 825 bp SERK1 (SERK1^∆KD), 834 bp SERK2 (SERK2^∆KD) and the 927 bp SERK3/BAK1 (BAK1^∆KD) coding regions were amplified with the primers listed in Supplementary Table 3. The PCR products of SERK1^∆KD, SERK2^∆KD and BAK1^∆KD were inserted into the pCAMBIA1306-GFP vector at the KpnI and SalI sites to generate the pCAMBIA1306-SERK1^∆KD/2/BAK1^∆KD-GFP constructs. pCAMBIA1306-PXL^∆KD -MYC, pCAMBIA1306-SERK1^∆KD GFP and pCAMBIA1306-BAK1^∆KD-GFP were transferred into the Agrobacterium tumefaciens GV3101 strain.
The cultures were grown overnight in 2 x YT medium and resuspended to optical density at 600 nm (OD600) = 2.0 in an injection buffer (150 μM acetosyringone, 10 mM MgCl2 and 10 mM MES). […]
Total proteins were extracted from the N. benthamiana leaves with the extraction buffer (50 mM Tris-HCl (pH 7.5), 150 mM NaCl, 5 mM EDTA, 5% glycerol, 1% Triton X-100 with protease inhibitor, phosphatase inhibitor, and PMSF) and then incubated with GFP-Trap beads (Chromo Tek) at 4 °C for 4 h, followed by two washes (50 mM Tris-HCl (pH 7.5), 150 mM NaCl, 5 mM EDTA, 5% glycerol, and 0.01% Triton X-100). Proteins were separated on SDS-PAGE gels and detected by anti-Myc (GNI) antibody via western blots.

[3] = system: PXL1 (PXL1-FLAG); assay: In vivo phosphorylation assay, Phos-tag SDS-PAGE and western blot; type: cell-based, Arabidopsis; conditions: 10-day-old pPXL1::PXL1-FLAG seedlings, 20 µM peptide, 1.5 h; Phos-tag gel, anti-FLAG; λpp control
Protocol: Ten-day-old […] transgenic seedlings were tested to observe the phosphorylation status of PXL1. The seedlings were cultured in 1/2 MS liquid medium treated with mock or 20 μM CLE19, CLE19[…] or CLV3 peptide for 1.5 h and then ground to a fine powder in liquid N2 for protein extraction performed as described above. The extracted protein was analyzed by Phos-tag (Wako) gel and immunoblotting using anti-FLAG (GNI) antibody. The anti-HSP70 (Abmart) antibody was used to determine the amount of input protein. Anti-FLAG beads (Abmart) were used for immunoprecipitation to purify the PXL1-FLAG protein. Anti-pS/T (ECM) was used to detect the phosphorylation status of the PXL1 protein after CLE19 treatment. The seedling protein extracted was also treated with λpp (NEB) at 30 °C for 0.5 h and then analyzed by anti-FLAG and anti-HSP antibodies.

[4] = molecular target: PXL2 LRR (Arabidopsis thaliana) (UniProt Q9M0G7); assay: ITC; conditions: cited from earlier work
[5] = molecular target: PXL1 LRR (Arabidopsis thaliana) (UniProt Q9FRS6); assay: ITC; conditions: cited from earlier work
[6] = molecular target: PXY LRR (Arabidopsis thaliana) (UniProt Q9FII5); assay: ITC; conditions: cited from earlier work
[7] = molecular target: T1, PXL1^LRR (extracellular LRR domain of …); assay: ITC; ITC200; 1 mM CLE19 titrated into 0.1 mM PXL1^LRR in the cell, 20 injections; 10 mM Bis-Tris pH 6.0, 100 mM NaCl; 25 °C; conditions: both partners purified
[8] = molecular target: PXL2 (protein used for ITC) (Arabidopsis, UniProt Q9M0G7 24-1013); assay: ITC; CLE19 with PXL2 and with PXY; conditions not told for these proteins; conditions: both partners purified
PXL2 (protein used for ITC), sequence (Q9M0G7 24-1013): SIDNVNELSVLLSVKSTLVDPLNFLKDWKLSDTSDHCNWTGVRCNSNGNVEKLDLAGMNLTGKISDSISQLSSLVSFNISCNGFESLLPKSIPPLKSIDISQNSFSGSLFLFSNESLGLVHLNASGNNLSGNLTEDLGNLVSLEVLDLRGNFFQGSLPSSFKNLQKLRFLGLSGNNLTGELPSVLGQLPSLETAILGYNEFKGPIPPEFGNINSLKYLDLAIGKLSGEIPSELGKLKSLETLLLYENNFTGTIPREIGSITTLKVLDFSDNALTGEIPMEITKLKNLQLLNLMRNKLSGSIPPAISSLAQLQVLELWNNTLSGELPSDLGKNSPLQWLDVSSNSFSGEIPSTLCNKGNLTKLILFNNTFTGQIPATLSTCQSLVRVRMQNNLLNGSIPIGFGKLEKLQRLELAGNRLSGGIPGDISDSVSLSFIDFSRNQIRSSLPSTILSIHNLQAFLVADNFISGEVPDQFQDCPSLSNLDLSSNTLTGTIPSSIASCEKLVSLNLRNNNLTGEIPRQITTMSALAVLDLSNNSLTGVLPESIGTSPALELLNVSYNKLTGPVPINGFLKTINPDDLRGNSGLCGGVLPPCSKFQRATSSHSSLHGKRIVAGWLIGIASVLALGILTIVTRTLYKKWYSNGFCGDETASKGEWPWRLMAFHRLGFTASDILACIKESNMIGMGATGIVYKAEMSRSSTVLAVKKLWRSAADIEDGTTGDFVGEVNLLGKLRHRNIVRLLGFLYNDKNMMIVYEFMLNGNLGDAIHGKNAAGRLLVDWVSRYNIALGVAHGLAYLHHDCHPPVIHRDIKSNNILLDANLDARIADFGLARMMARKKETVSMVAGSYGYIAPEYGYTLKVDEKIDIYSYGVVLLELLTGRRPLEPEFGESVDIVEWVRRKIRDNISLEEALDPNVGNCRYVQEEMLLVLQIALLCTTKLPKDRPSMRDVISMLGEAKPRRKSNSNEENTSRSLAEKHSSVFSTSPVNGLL

PXL2 LRR (Arabidopsis thaliana), sequence (Q9M0G7 24-633): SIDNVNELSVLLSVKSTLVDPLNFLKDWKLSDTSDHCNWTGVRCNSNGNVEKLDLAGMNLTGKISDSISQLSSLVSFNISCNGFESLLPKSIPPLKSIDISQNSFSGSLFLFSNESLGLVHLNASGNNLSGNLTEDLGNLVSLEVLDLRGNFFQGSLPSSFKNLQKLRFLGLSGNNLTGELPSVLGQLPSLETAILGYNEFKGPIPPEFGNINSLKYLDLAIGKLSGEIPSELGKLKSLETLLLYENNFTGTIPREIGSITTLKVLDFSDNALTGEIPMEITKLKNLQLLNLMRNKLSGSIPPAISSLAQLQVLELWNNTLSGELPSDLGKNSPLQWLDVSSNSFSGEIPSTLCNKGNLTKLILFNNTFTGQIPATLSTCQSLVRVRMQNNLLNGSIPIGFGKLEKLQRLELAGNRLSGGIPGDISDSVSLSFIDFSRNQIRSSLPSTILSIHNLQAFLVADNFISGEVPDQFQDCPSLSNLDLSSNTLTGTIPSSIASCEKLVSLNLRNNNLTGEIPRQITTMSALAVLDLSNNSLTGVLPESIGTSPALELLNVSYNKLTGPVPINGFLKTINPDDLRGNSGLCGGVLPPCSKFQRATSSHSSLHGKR
PXY LRR (Arabidopsis thaliana), sequence (Q9FII5 30-652): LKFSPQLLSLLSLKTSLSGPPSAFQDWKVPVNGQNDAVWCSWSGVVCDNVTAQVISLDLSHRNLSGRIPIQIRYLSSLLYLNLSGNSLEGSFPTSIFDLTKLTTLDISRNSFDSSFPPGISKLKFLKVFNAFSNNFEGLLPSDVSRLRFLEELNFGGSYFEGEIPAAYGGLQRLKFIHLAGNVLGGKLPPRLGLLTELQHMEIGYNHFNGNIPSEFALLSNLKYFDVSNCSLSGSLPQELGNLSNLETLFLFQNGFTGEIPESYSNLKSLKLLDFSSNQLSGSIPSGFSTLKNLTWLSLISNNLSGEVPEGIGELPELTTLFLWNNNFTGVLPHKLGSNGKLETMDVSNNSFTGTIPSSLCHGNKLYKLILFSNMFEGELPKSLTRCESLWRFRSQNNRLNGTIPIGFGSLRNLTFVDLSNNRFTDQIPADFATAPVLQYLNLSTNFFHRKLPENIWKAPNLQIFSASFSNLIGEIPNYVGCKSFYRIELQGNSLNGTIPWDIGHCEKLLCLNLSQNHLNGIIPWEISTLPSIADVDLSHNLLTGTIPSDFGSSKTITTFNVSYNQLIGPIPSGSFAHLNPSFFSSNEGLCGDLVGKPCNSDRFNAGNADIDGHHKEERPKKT

| Molecule | CLE peptide copurified with PXL1 [1] | other results |
| --- | --- | --- |
| CLAVATA3 [CLV3] | interaction with PXL1 was not detected; also recorded: CLE19 was the only CLE peptide that co-purified with PXL1; also recorded: but not CLV3, CLE3, CLE6, and others | PXL1^∆KD-SERK1^∆KD interaction (co-IP) [2]: no such interaction was detected in the absence of CLE19 or the presence of CLV3; PXL1 phosphorylation (Phos-tag migration) [3]: Neither CLE19G6T nor CLV3 induced the phosphorylation-related migration of PXL1; also recorded: PXL1 phosphorylation was not induced |
| CLE3: synthetic CLE small peptide of the pool (RLSPGGPDPRHH; ends and bridges not checked; UniProt Q3EDH8 72-83, looked up) | CLE19 was the only CLE peptide that co-purified with PXL1; also recorded: but not CLV3, CLE3, CLE6, and others | – |
| CLE6: synthetic CLE small peptide of the pool (RVSPGGPDPQHH; ends and bridges not checked; UniProt Q8S8N3 70-81, looked up) | CLE19 was the only CLE peptide that co-purified with PXL1; also recorded: but not CLV3, CLE3, CLE6, and others | – |
| CLE8: CLE peptide (RRVPTGPNPLHH; ends and bridges not checked; UniProt Q2V4E2 61-72, looked up) | CLE19 was the only CLE peptide that co-purified with PXL1 | – |
| CLE9: CLE peptide (RLVPSGPNPLHN; ends and bridges not checked; UniProt Q9FZE4 109-120, looked up) | CLE19 was the only CLE peptide that co-purified with PXL1 | – |
| CLE11: CLE peptide (RVVPSGPNPLHH; ends and bridges not checked; UniProt Q3ECU1 88-99, looked up) | CLE19 was the only CLE peptide that co-purified with PXL1 | – |
| CLE12: CLE peptide (RRVPSGPNPLHH; ends and bridges not checked; UniProt Q29PU4 107-118, looked up) | CLE19 was the only CLE peptide that co-purified with PXL1 | – |
| CLE14: CLE peptide (RLVPKGPNPLHN; ends and bridges not checked; UniProt Q3ECJ5 68-79, looked up) | CLE19 was the only CLE peptide that co-purified with PXL1 | – |
| CLE16: CLE peptide (RLVHTGPNPLHN; ends and bridges not checked; UniProt Q8S8M2 92-103, looked up) | CLE19 was the only CLE peptide that co-purified with PXL1 | – |
| CLE18: CLE peptide (RQIPTGPDPLHN; ends and bridges not checked; UniProt Q3ECH9 37-48, looked up) | CLE19 was the only CLE peptide that co-purified with PXL1 | – |
| CLE19G6T: functionally inactive CLE19G6T (RVIPTTPNPLHN; ends and bridges not checked; UniProt Q8W261 62-73, looked up, variant G6T) | – | PXL1 phosphorylation (Phos-tag migration) [3]: Neither CLE19G6T nor CLV3 induced the phosphorylation-related migration of PXL1; also recorded: PXL1 phosphorylation was not induced; also recorded: lost the ability of inducing PXL1 phosphorylation |
| CLE20: CLE peptide (RKVKTGSNPLHN; ends and bridges not checked; UniProt Q3EDI6 70-81, looked up) | CLE19 was the only CLE peptide that co-purified with PXL1 | – |
| CLE25: CLE peptide (RKVPNGPDPIHN; ends and bridges not checked; UniProt Q8LFL4 58-69, looked up) | CLE19 was the only CLE peptide that co-purified with PXL1 | – |
| CLE40: CLE peptide (RQVPTGSDPLHH; ends and bridges not checked; UniProt Q9LXU0 62-73, looked up) | CLE19 was the only CLE peptide that co-purified with PXL1 | – |
| CLE41 (from UniProt Q84W98) | – | Kd [4]: 9900 nM; Kd [5]: 2100 nM; Kd [6]: 33 nM |
| CLE43: CLE peptide (RRIPSSPDRLHN; ends and bridges not checked; UniProt Q6IWB1 85-96, looked up) | CLE19 was the only CLE peptide that co-purified with PXL1 | – |
| CLE45: CLE peptide (RRVRRGSDPIHN; ends and bridges not checked; UniProt Q6IWA9 107-118, looked up) | CLE19 was the only CLE peptide that co-purified with PXL1 | – |
| CLE46: CLE peptide (HKHPSGPNPTGN; ends and bridges not checked; UniProt Q8LDN4 58-69, looked up) | CLE19 was the only CLE peptide that co-purified with PXL1 | – |
| RVIPTGPNPLHN | – | Kd [7]: ~346 nM |
| RVIPTGPNPLHN (ends and bridges not checked) | – | Kd [8]: 714 nM |
